How the values were obtained:
Human M21 melanoma cells [1] = assay: M21 melanoma cell proliferation, MTT assay; type: cell-based
Experimental: (§1) Human M21 melanoma cells were washed and re-suspended in proliferation buffer containing 1.0% serum in the presence or absence of 100 ng/mL of C-45-Na, or C-45-HCl. DMSO control samples lacking C-45-Na or C-45-HCl were also prepared. Treated cells (1,500/well) were added to individual wells of a cell culture microtiter plate and allowed to grow over a time course of 3 days. Proliferation was monitored using a commercially available MTT assay (Millipore). Data points represent the mean±standard deviations from triplicate wells.
as §1, with “C-45-HCl.” for “C-45-HCl. DMSO control samples lacking C-45-Na or C-45-HCl were also prepared.”
as §1, with “0.5%” for “1.0%”, “presence” for “presence or absence”, “50 μg/mL” for “100 ng/mL”, “C-45-Na, C-45-K,” for “C-45-Na,”, “C-45-Na, C-45-K, and” for “C-45-Na or”
(§2) In Example 6, the differential effects of C-45-Na on normal human melanocytes, normal human keratinocytes and human melanoma cells were examined Normal human melanocytes, keratinocytes and M21 melanoma cells were allowed to proliferate in the presence or absence of C-45-Na (50 μg/mL) for 24 hours. Proliferation was monitored using a commercially available MTT assay (Millipore).

[2] = system: Panc-1 human pancreatic carcinoma cells; assay: Panc-1 pancreatic carcinoma proliferation, MTT assay; type: cell-based; conditions: 4.7, 9.3, 17.3, 37.5, and 75 μg/mL, 3 days; FIG. 14B
Experimental: Panc-1 human pancreatic carcinoma cells were allowed to proliferate over a 3-day time course in the presence or absence of a series of concentrations of C-45-Na (4.7, 9.3, 17.3, 37.5, and 75 μg/mL) of or C-45-HCl. DMSO control samples lacking C-45-Na and were also prepared. Treated cells (1,500/well) were added to individual wells of a cell culture microtiter plate and allowed to grow over a time course of 3 days. Proliferation was monitored using a commercially available MTT assay (Millipore). Data points represent the mean±standard deviations from triplicate wells.

M21 melanoma cells = assay: M21 melanoma tumor growth in nude mice; type: in vivo
Experimental: Briefly, M21 melanoma cells (4.0×10^6) were injected subcutaneously in nude mice. Following establishment of palpable tumors (4 days), mice were either left untreated or treated daily by i.p injection with DMSO (50 μl/day), or with C-45-Na (50 μl/day) or C-45-HCl (50 μl/day) at a concentration range of 1-100 ug/day. Tumor size was monitored by caliper measurements and tumor volumes were estimated using the formula (L^2×W/2) where “L” represents length, and “W” represents width.
The effects of C45-Na on M21 melanoma tumor growth in vivo were studied. Briefly, M21 melanoma cells (4.0×10^6) were injected subcutaneously in nude mice. Following establishment of palpable tumors (4 days), mice were either left untreated or treated daily by i.p injection with DMSO (50 μl/day), or with C-45-Na concentrations of 0.1, 0.5, or 1.0 μg/day. Tumor size was monitored by caliper measurements and tumor volumes were estimated using the formula (L^2×W/2) where “L” represents length, and “W” represents width.
In experiment 11, an activity comparison between C-45-Na (1.0 μg) and C45-HCl (1.0 μg) on the in vivo growth of M21 tumors was examined following daily treatment after 21 days. Tumor size was monitored by caliper measurements and tumor volumes were estimated using the formula (L^2×W/2) where “L” represents length, and “W” represents width.

C8161 melanoma cells = assay: Melanoma cell morphology; type: cell-based, human; conditions: 100 μg/mL, 24 hours; FIG. 11B
Experimental: (§3) Human M21 melanoma cells or C8161 melanoma cells were incubated in the presence of 100 μg/mL of C-45-Na or C-45-HCl for 24 hours. DMSO control samples lacking C-45-Na and C-45-HCl were also prepared.

[3] = system: MDA-MB 231 human breast carcinoma cells; assay: MDA-MB 231 breast carcinoma proliferation, MTT assay; type: cell-based; conditions: 100 μg/mL, 0.5% serum, 3 days; FIG. 14A
Experimental: as §1, with “MDA-MB 231 human breast carcinoma cells” for “Human M21 melanoma cells”, “containing 0.5%” for “containing 1.0%”, “presence” for “presence or absence”, “100 μg/mL” for “100 ng/mL”, “of C-45-Na” for “of C-45-Na,”, “C-45-Na and” for “C-45-Na or”

[4] = system: C8161 human melanoma cells; assay: C8161 melanoma cell proliferation, MTT assay; type: cell-based; conditions: 100 μg/mL, 0.5% serum, 3 days; FIG. 13A
Experimental: as §1, with “C8161 and A375 human melanoma” for “Human M21 melanoma”, “containing 0.5%” for “containing 1.0%”, “presence” for “presence or absence”, “100 μg/mL” for “100 ng/mL”, “of C-45-Na” for “of C-45-Na,”, “C-45-Na and” for “C-45-Na or”

[5] = system: A375 human melanoma cells; assay: A375 melanoma cell proliferation, MTT assay; type: cell-based; conditions: 100 μg/mL, 0.5% serum, 3 days; FIG. 13B
Experimental: as §1, with “C8161 and A375 human melanoma” for “Human M21 melanoma”, “containing 0.5%” for “containing 1.0%”, “presence” for “presence or absence”, “100 μg/mL” for “100 ng/mL”, “of C-45-Na” for “of C-45-Na,”, “C-45-Na and” for “C-45-Na or”

[6] = system: normal human keratinocytes; assay: Normal keratinocyte proliferation, MTT assay; type: cell-based; conditions: 50 μg/mL, 24 hours; FIG. 12C
Experimental: as §2

Normal human melanocytes = assay: Normal melanocyte proliferation, MTT assay; type: cell-based; conditions: 50 μg/mL, 24 hours; FIG. 12B
Experimental: as §2

Human M21 melanoma cells [7] = assay: Melanoma cell morphology; type: cell-based; conditions: 100 μg/mL, 24 hours; FIG. 11A
Experimental: as §3

## C=CCNc1ccc(C(=O)[O-])cc1.[Na+] [C-45-Na, Sodium 4-allylaminobenzoate]
Human M21 melanoma cells [1]; 50 μg/mL, 24 hours, M21 vs melanocytes and keratinocytes
  selectivity, tumor cells versus normal human cells: selective for tumor cell proliferation rather than normal human cells
Human M21 melanoma cells [1]; Experiment 1: 100 ng/mL, 1.0% serum, 3 days, FIG. 6
  M21 tumor cell proliferation: very potent anti-proliferative activity
Human M21 melanoma cells [1]; Experiment 2: 100 ng/mL, 1.0% serum, 3 days, FIG. 7
  M21 tumor cell proliferation: very potent anti-proliferative activity
Human M21 melanoma cells [1]; Experiment 3: 50 μg/mL, 0.5% serum, 3 days, FIG. 15
  M21 tumor cell proliferation: very potent anti-proliferative activity
Human M21 melanoma cells [1]; Experiment 8: 50 μg/mL, 24 hours, FIG. 12A
  M21 tumor cell proliferation: very potent anti-proliferative activity
[2]
  panc-1 cell proliferation: very potent anti-proliferative activity
M21 melanoma cells; Experiment 9: daily i.p., 1.0 μg/day
  inhibition of M21 melanoma tumor growth: Significant inhibition
M21 melanoma cells; Experiment 10: daily i.p., 0.1, 0.5, or 1.0 μg/day, days 8, 14, and 21 (P<0.05), FIG. 16
  inhibition of tumor growth: significant inhibition of tumor growth
M21 melanoma cells; Experiment 11: 1.0 μg daily, day 21 (P<0.05), FIG. 17
  inhibition of tumor growth: significant inhibition of tumor growth
C8161 melanoma cells
  cell morphology, C8161: significant cell rounding
[3]
  MDA-MB 231 cell proliferation: very potent anti-proliferative activity
[4]
  C8161 tumor cell proliferation: very potent anti-proliferative activity
[5]
  A375 tumor cell proliferation: very potent anti-proliferative activity
[6]
  effect on proliferation of normal human keratinocytes: very little effect
Normal human melanocytes
  effect on proliferation of normal human melanocytes: very little effect
Human M21 melanoma cells [7]
  cell morphology, M21: significant cell rounding

Source: patent US8710099B2, “Treatment of cancer using the sodium salt of a benzoic acid derivative” (New York University, priority 2009, dated 2014)
